Each block holds one compound with its values, some of them ahead of it.
Experiments:
DIO C57Bl6 mice = experiment: In vivo testing DIO C57Bl6 mice: weight changes, food consumption, body composition (Compound 16 vs TNP-470)
Experimental: C57Bl6 male mice (N=6) thirteen weeks old with an average of weight of 34 g were ad libitum fed TD.06414 a high fat diet composed of 60% Kcal from fat (Harlan diet). On study day 1 animals were randomized into groups so that the average weight of each group was 33.9 g. […] Animals were weighed every other day. Food consumption was measured weekly. On day 33 gross pathology was performed to determine body composition.

[1] = in combination with paclitaxel, dosed three times per week; cited from earlier work
[2] = Plasma pharmacokinetics after single IV bolus in Sprague Dawley rats (LC/MS/MS, analyte Compound 1); assay type: in vivo; conditions: male, rat, Compound 1 30 mg/kg single IV bolus
Experimental: Blood samples were collected via saphenous vein puncture at 0, 0.25, 0.5, 1, 2, 4, 8, 24 and 48 hours.

DIO Levin rats [3] = experiment: In vivo testing DIO Levin rats: weight changes, food consumption, insulin, leptin levels; conditions: for Final BW: after 68 days, 60% fat diet
Experimental: CKD-732 as referred to herein is the hemitartrate salt of the following structure:
Test articles were administered subcutaneously on an every 4 day (q4d) schedule in a diet-induced obesity (DIO) Levin-DS rat model. […] A dietary intervention (Standard Chow, Labdiet 5001; 3.4 kcal/g) was included to compare to the drug interventions. Upon arrival at three weeks of age, the male rats received ad libitum pellets of Harlan Diet TD.06414, 60% of calories from fat, 21% of calories from carbohydrate; 5.1 kcal/g. Prior to dosing the rats were randomized into groups of three animals with an average body weight of 595 gm. […] Compound 1 in the form of the hemitartrate and CKD-732 in the form of the hemitartrate were dissolved in ethanol prior to dilution with vehicle. All doses were administered at a volume of 5.0 ml/kg. […] On day 1, first dose, the rats were 14 weeks of age. Also on day 1, Group 2 was switched from the high fat diet to a standard chow diet; the remaining groups were maintained on a high fat diet for the duration of the study.
(§1) Animals were weighed every other day. Food consumption was measured weekly. On an approximately weekly basis throughout the study, blood samples were taken for assessment of serum chemistries including glucose and insulin. On Day 48 all rats underwent a 4 hour fasted Oral Glucose Tolerance Test (OGTT). Animals were dosed orally (per os, PO) at 8 mL/kg 25% glucose (2 g/kg). On day 68, gross pathology was performed to determine body composition.

DIO Levin rats [4] = experiment: Oral Glucose Tolerance Test (OGTT) Day 48 and HOMA-ir in DIO Levin rats; assay type: in vivo; conditions: for Blood Glucose, Time 15 / Blood Glucose, Time 30 / Blood Glucose, Time 60 / Blood Glucose, Time 90 / Blood Glucose, Time 120: OGTT; for BW: at OGTT;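 on Blood Glucose pre-OGTT: blood glucose in mg/dL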;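 on Blood Glucose, Time 120: blood glucose in mg/dL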;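 on Blood Glucose, Time 15: blood glucose in mg/dL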;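 on Blood Glucose, Time 30: blood glucose in mg/dL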;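 on Blood Glucose, Time 60: blood glucose in mg/dL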;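 on Blood Glucose, Time 90: blood glucose in mg/dL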
Experimental: as §1

[5] = qod (Cmpd 16 1 mg/kg qod), Day 33

SMILES: CO[C@@H]1[C@H](OC(=O)NC(=O)CCl)CC[C@]2(CO2)[C@H]1[C@@]1(C)O[C@@H]1CC=C(C)C [TNP-470, chloroacetylcarbamoylfumagillol, reference compound]
Body Weight Day 33 (DIO C57Bl6 mice; 0.5 mg/kg/day, qod, sc): 34.1 g
B.W. (DIO C57Bl6 mice; [5]): 34.1 grams
Epididymal Fat (DIO C57Bl6 mice; [5]): 1.54 grams
Inguinal Fat (DIO C57Bl6 mice; [5]): 1.21 grams
Liver (DIO C57Bl6 mice; [5]): 1.15 grams
Retroperitoneal Fat (DIO C57Bl6 mice; [5]): 0.80 grams
Total Fat (DIO C57Bl6 mice; [5]): 3.55 grams
MTD [1]: 60 mg/m2

Cmax [2]: ~15 µM
half-life [2]: 10 to 15 min
SMILES: COC1C(OC(=O)N[C@H]2CC[C@H](N)CC2)CC[C@]2(CO2)C1[C@@]1(C)O[C@@H]1CC=C(C)C (stereo partly drawn) [Compound 1, Fumagill-6-yl [trans-(4-aminocyclohexyl)]carbamate]
lower body weight than vehicle (DIO Levin rats [3]; 1 mg/kg Q4D): 3.9%
Avg. Insulin Day 7 (DIO Levin rats [3]; 1 mg/kg q4d sc): 1.83 ng/mL
Avg. Insulin Day 15 (DIO Levin rats [3]; 1 mg/kg q4d sc): 1.39 ng/mL
Avg. Insulin Day 23 (DIO Levin rats [3]; 1 mg/kg q4d sc): 1.20 ng/mL
Avg. Insulin Day 48 (DIO Levin rats [3]; 1 mg/kg q4d sc): 1.75 ng/mL
Avg. Insulin Pre-dosing (DIO Levin rats [3]; 1 mg/kg q4d sc): 1.92 ng/mL
Group Average Food Consumption Day 1-8 (DIO Levin rats [3]; 1 mg/kg q4d sc): 128.6 g
Group Average Food Consumption Day 9-15 (DIO Levin rats [3]; 1 mg/kg q4d sc): 109.3 g
Group Average Food Consumption Day 16-23 (DIO Levin rats [3]; 1 mg/kg q4d sc): 121.1 g
Group Average Food Consumption Day 24-30 (DIO Levin rats [3]; 1 mg/kg q4d sc): 145.9 g
Group Average Food Consumption Day 31-36 (DIO Levin rats [3]; 1 mg/kg q4d sc): 144.6 g
Group Average Food Consumption Day 37-43 (DIO Levin rats [3]; 1 mg/kg q4d sc): 141.7 g
Group Average Food Consumption Day 44-50 (DIO Levin rats [3]; 1 mg/kg q4d sc): 122.4 g
Group Average Food Consumption Day 51-57 (DIO Levin rats [3]; 1 mg/kg q4d sc): 147.7 g
Group Average Food Consumption Day 58-63 (DIO Levin rats [3]; 1 mg/kg q4d sc): 140.7 g
Group Average Food Consumption Day 63-68 (DIO Levin rats [3]; 1 mg/kg q4d sc): 55.1 g
Leptin Levels Day 29 (DIO Levin rats [3]; 1 mg/kg q4d sc): 2.47
Leptin Levels Pre-dose (DIO Levin rats [3]; 1 mg/kg q4d sc): 2.50
Leptin Levels, Day 29, % Change from Baseline (DIO Levin rats [3]; 1 mg/kg q4d sc): −1.3%
Final BW (DIO Levin rats [3]; 1.0 mg/kg q4d sc): 717.3 g
lower body weight than the vehicle control (DIO Levin rats [3]; 3 mg/kg Q4D, end of the study): 8.9%
Avg. Insulin Day 7 (DIO Levin rats [3]; 3 mg/kg q4d sc): 1.35 ng/mL
Avg. Insulin Day 15 (DIO Levin rats [3]; 3 mg/kg q4d sc): 1.68 ng/mL
Avg. Insulin Day 23 (DIO Levin rats [3]; 3 mg/kg q4d sc): 1.27 ng/mL
Avg. Insulin Day 48 (DIO Levin rats [3]; 3 mg/kg q4d sc): 1.40 ng/mL
Avg. Insulin Pre-dosing (DIO Levin rats [3]; 3 mg/kg q4d sc): 2.10 ng/mL
Group Average Food Consumption Day 1-8 (DIO Levin rats [3]; 3 mg/kg q4d sc): 123.6 g
Group Average Food Consumption Day 9-15 (DIO Levin rats [3]; 3 mg/kg q4d sc): 98.9 g
Group Average Food Consumption Day 16-23 (DIO Levin rats [3]; 3 mg/kg q4d sc): 110.1 g
Group Average Food Consumption Day 24-30 (DIO Levin rats [3]; 3 mg/kg q4d sc): 149.3 g
Group Average Food Consumption Day 31-36 (DIO Levin rats [3]; 3 mg/kg q4d sc): 138.8 g
Group Average Food Consumption Day 37-43 (DIO Levin rats [3]; 3 mg/kg q4d sc): 130.9 g
Group Average Food Consumption Day 44-50 (DIO Levin rats [3]; 3 mg/kg q4d sc): 94.7 g
Group Average Food Consumption Day 51-57 (DIO Levin rats [3]; 3 mg/kg q4d sc): 116.2 g
Group Average Food Consumption Day 58-63 (DIO Levin rats [3]; 3 mg/kg q4d sc): 124.9 g
Group Average Food Consumption Day 63-68 (DIO Levin rats [3]; 3 mg/kg q4d sc): 49.8 g
Leptin Levels Day 29 (DIO Levin rats [3]; 3 mg/kg q4d sc): 3.60
Leptin Levels Pre-dose (DIO Levin rats [3]; 3 mg/kg q4d sc): 3.23
Leptin Levels, Day 29, % Change from Baseline (DIO Levin rats [3]; 3 mg/kg q4d sc): 11.33%
Final BW (DIO Levin rats [3]; 3.0 mg/kg q4d sc): 684.0 g
reduction in leptin levels (DIO Levin rats [3]; serum leptin day 29): did not result in significant reductions in leptin levels
Blood Glucose pre-OGTT (DIO Levin rats [4]; 1 mg/kg q4d sc): 124 mg/dL
HOMA-ir (Insulin Sensitivity) 15 min (DIO Levin rats [4]; 1 mg/kg q4d sc): 42.7
HOMA-ir (Insulin Sensitivity) 30 min (DIO Levin rats [4]; 1 mg/kg q4d sc): 21.1
HOMA-ir (Insulin Sensitivity) Pre-dose (DIO Levin rats [4]; 1 mg/kg q4d sc): 15.4
Blood Glucose, Time 15 (DIO Levin rats [4]; 1 mg/kg q4d sc): 156 mg/dL
Blood Glucose, Time 30 (DIO Levin rats [4]; 1 mg/kg q4d sc): 142 mg/dL
Blood Glucose, Time 60 (DIO Levin rats [4]; 1 mg/kg q4d sc): 152 mg/dL
Blood Glucose, Time 90 (DIO Levin rats [4]; 1 mg/kg q4d sc): 151 mg/dL
Blood Glucose, Time 120 (DIO Levin rats [4]; 1 mg/kg q4d sc): 142 mg/dL
BW (DIO Levin rats [4]; 1 mg/kg q4d sc): 686 g
Blood Glucose pre-OGTT (DIO Levin rats [4]; 3 mg/kg q4d sc): 123 mg/dL
HOMA-ir (Insulin Sensitivity) 15 min (DIO Levin rats [4]; 3 mg/kg q4d sc): 29.2
HOMA-ir (Insulin Sensitivity) 30 min (DIO Levin rats [4]; 3 mg/kg q4d sc): 9.5
HOMA-ir (Insulin Sensitivity) Pre-dose (DIO Levin rats [4]; 3 mg/kg q4d sc): 12.2
Blood Glucose, Time 15 (DIO Levin rats [4]; 3 mg/kg q4d sc): 175 mg/dL
Blood Glucose, Time 30 (DIO Levin rats [4]; 3 mg/kg q4d sc): 171 mg/dL
Blood Glucose, Time 60 (DIO Levin rats [4]; 3 mg/kg q4d sc): 149 mg/dL
Blood Glucose, Time 90 (DIO Levin rats [4]; 3 mg/kg q4d sc): 147 mg/dL
Blood Glucose, Time 120 (DIO Levin rats [4]; 3 mg/kg q4d sc): 129 mg/dL
BW (DIO Levin rats [4]; 3 mg/kg q4d sc): 668 g

— patent US11304944B2, “MetAP2 inhibitors and methods of treating obesity” (SynDevRx, Inc., priority 2013, dated 2022)
